From PubChem BioAssay (NCI) come the findings set out here.

Structures are written as SMILES.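 In this assay, cells in 96-well plates receive the compound at five concentrations for 48 hours. Endpoints are linearly interpolated between the surrounding concentrations. Abbreviation: GI50, concentration required for 50% inhibition of growth. At the TGI there is no net growth.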 A value given as a limit tells only on which side of the number the result lay.

Common to all, as to assay: growth of human tumour cells (NCI), 48 h
The subject of test [1] is IGROV1 ovarian.
Test [2] concerns DU-145 prostate.
Test [3] deals with BT-549 breast.
Test [4] deals with KM12 colon.
Test [5] relates to TK-10 renal.
The subject of test [6] is 786-0 renal.
Test [7] relates to MOLT-4 leukemia.
The subject of test [8] is HOP-92 NSCLC.
Test [9] deals with HT29 colon.
Test [10] concerns SF-295 CNS.

`Cc1ccc(-c2nc3nc(-c4ccc(F)cc4)nc(N4CCNCC4)c3o2)cc1`: the GI50 in test [1] is 1680 nM; in test [2], 2600 nM; in test [3] it was 13.6 µM; in test [4], 1880 nM; in [5], 2.07 µM; in test [6], 1760 nM. Moreover, the GI50 in test [7] is 2100 nM; in [8] it was 4.5 µM; in test [9], 1.86 µM; in test [10], 18.3 µM. Further, the TGI in test [1] was determined as 3.16 µM; in [2], 6.45 µM; in test [3], 30.1 µM; in test [4], 3.61 µM; in test [5], 6.38 µM; in test [6] it was 3.34 µM. Moreover, the TGI worked out at 4.42 µM in test [7], 22.6 µM in test [8], 3.93 µM in test [9] and 33.9 µM in test [10].
Consider `CCN1CCC(CC(=O)Nc2n[nH]c3nnc(-c4cccc(F)c4F)cc23)CC1`, for which the GI50 in test [1] was more than 25000 nM; in test [2], more than 25000 nM; in test [3] it was more than 25 µM; in test [4] it was more than 25000 nM; in test [5], more than 25 µM; in [6], more than 25000 nM. For the same molecule, the GI50 is more than 25000 nM in test [7], more than 25 µM in test [8], 12.4 µM in [9] and 18 µM in [10]. Moreover, the TGI in test [1], in test [2], in test [3], in test [4], in test [5] and in test [6] was more than 25 µM throughout. Further, the TGI in test [7], in test [8], in test [9] and in [10] was more than 25 µM throughout.
Consider `Oc1c(C(Nc2ccccn2)c2cccc(Oc3ccccc3)c2)ccc2cccnc12` (stereo not given), for which the GI50 in test [1] was 538 nM; in [2], 774 nM; in [3], 0.479 µM; in test [4], 450 nM; in [5], 0.672 µM; in test [6], 657 nM. For the same molecule, the GI50 in [7] was 436 nM; in [8], 0.522 µM; in test [9], 1.63 µM; in test [10], 0.392 µM. The TGI was 21.5 µM in test [1]; 16.2 µM in test [2]; 13 µM in test [3]; 23.4 µM in test [4]; 14.5 µM in test [5]; 11.1 µM in [6]. Further, the TGI in [7] was more than 100 µM; in test [8] it was 23.7 µM; in test [9] it was 30.1 µM; in [10] it was 13.3 µM.
In the case of `CCCCCCC1N=C(N)N=C(N)N1c1cccc(Cl)c1` (stereo not given), the GI50 is 199 nM in [1]; 587 nM in test [2]; 0.506 µM in test [3]; 421 nM in test [4]; 3.66 µM in test [5]; 289 nM in [6]. Also, the GI50 in [7] is 940 nM; in [8] it was 0.491 µM; in test [9], 0.0514 µM; in test [10], 0.102 µM. Besides, the TGI in test [1] turned out to be 5.88 µM; in [2], 18 µM; in [3], 14.5 µM; in test [4] it was 7.26 µM; in test [5] it was 25.9 µM; in test [6], 13.3 µM. Also, the TGI in [7] was 17.8 µM; in test [8], 5.94 µM; in test [9], 7.23 µM; in test [10], 1.71 µM.
As for `CC(=O)OCC12CN(C#N)C3C4COC(CC41)C1(C(=O)N(C)c4ccccc41)C32` (stereo not given), the TGI is 85 µM in test [1]; 37.7 µM in test [2]; 10.5 µM in [3]; more than 100 µM in test [4]; 66.5 µM in [5]; more than 100 µM in test [6]. Besides, the TGI in test [7] was more than 100 µM; in test [8] it was 52.4 µM; in test [9], more than 100 µM; in test [10], more than 100 µM.
Regarding `N#CC(C#N)=CNCCN1CCN(C=C(C#N)C#N)CC1`, the TGI in test [1], in [2], in [3], in test [4], in [5] and in [6] was more than 100 µM each time. For the same molecule, the TGI in test [7], in test [8], in test [9] and in [10] was more than 100 µM each time.
`O=C(CN1CCN(Cc2ccccc2Cl)CC1)NC1CC(=O)c2c(Br)sc(Br)c21` (stereo not given): the GI50 in test [1] was 18200 nM; in test [2] it was 18800 nM; in [3], 19.4 µM; in test [4], 20900 nM; in test [5] it was 44.3 µM; in [6], 19400 nM. The GI50 was 27100 nM in [7], 14.1 µM in test [8], 18 µM in test [9] and 25.6 µM in [10]. The TGI amounted to 34.5 µM in test [1]; 33.6 µM in test [2]; 35.7 µM in test [3]; 40.6 µM in [4]; 97.1 µM in test [5]; 40.4 µM in test [6]. Further, the TGI in test [7] stood at 85.3 µM; in test [8], 31.6 µM; in test [9], 32.2 µM; in [10], 57.6 µM.
Consider `CCn1c(-c2nonc2N)nc2c(C#CC(C)(C)O)ncc(OC3CCNCC3)c21`, for which the GI50 in [1] was 696 nM; in test [2], 10400 nM; in test [3], 8.78 µM; in test [4], 4520 nM; in test [5] it was 6.6 µM; in [6] it was 6790 nM. Moreover, the GI50 was 6320 nM in test [7], more than 25 µM in test [8], 8.93 µM in test [9] and 9.09 µM in test [10]. For the same molecule, the TGI in [1], in [2], in test [3], in test [4], in [5] and in [6] was more than 25 µM each time. Also, the TGI in test [7], in test [8], in test [9] and in [10] was more than 25 µM throughout.
